We go through one compound from patent US7304093B2, “Ketone compounds and compositions for cholesterol management and related uses” (Esperion Therapeutics, Inc., priority 2000, dated 2007).

Read-outs that look alike come from different tables or passages of the source.

One series concerns primary rat hepatocytes. Put plainly: Inhibition of lipid synthesis ([1-14C]-acetate incorporation) in primary cultures of rat hepatocytes. It is filed as cell-based. The settings on record: Hepatocyte, 4 h incubation with [1-14C]-acetate, Table 6. A digest of the protocol:
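Monolayer primary hepatocytes from male Sprague-Dawley rats, serum-free overnight, were incubated 4 h with 0, 1, 3, 10, 30, 100 or 300 μM compound and 0.25 μCi [1-14C]-acetate per well. Total lipid synthesis was read as radioactivity in the lipid phase extracted into scintillant.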

In a further series the test system is female obese Zucker rats. Put plainly: Serum lipid and glycemic control variables in chow-fed obese female Zucker rats, daily oral gavage for two weeks. The conditions noted are these: Rattus norvegicus, 100 mg/kg daily oral, 100% = 2-fold increase, Table 8. It is filed as in vivo, rat. The procedure, abridged:
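Female obese Zucker fa rats, 10–12 wk, 400–500 g, chow-fed, dosed daily by oral gavage for 14 days in CMC/Tween 20 or ethanol/PEG-200 vehicle. After a 6-h fast, serum was sampled pre-dose, day 7 and day 14. Triglycerides, total cholesterol, NEFA and β-hydroxybutyrate were measured, plus lipoprotein cholesterol by gel-filtration profiling.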

The compound `O=C(CCCCC1(C(=O)O)CCC1)CCCCC1(C(=O)O)CCC1` [Compound 107f, 1-[9-(1-Carboxycyclobutyl)-5-oxononyl]-1-cyclo-butanecarboxylic acid] yielded a melting point of 69 to 70 °C. This compound showed a 50% inhibitory concentration (IC50) in the series on primary rat hepatocytes of 121 µM. Besides, the change in vivo at 100 mg/kg with female obese Zucker rats (168 h, 1 wk, read-out: HDL-Cholesterol, Percent Change from Pre-Treatment) was -1%. Moreover, the change in vivo at 100 mg/kg in the series with female obese Zucker rats (168 h, 1 wk, read-out: NonHDL-Cholesterol, Percent Change from Pre-Treatment) was -32%. The change in vivo at 100 mg/kg in the series on female obese Zucker rats (168 h, 1 wk, read-out: TG, Percent Change from Pre-Treatment) is -58%. For the same compound, the change in vivo at 100 mg/kg with female obese Zucker rats (336 h, 2 wk, read-out: HDL-Cholesterol, Percent Change from Pre-Treatment) was determined as 10%. Moreover, the change in vivo at 100 mg/kg in the series with female obese Zucker rats (336 h, 2 wk, read-out: NonHDL-Cholesterol, Percent Change from Pre-Treatment) is -40%. The change in vivo at 100 mg/kg in the series with female obese Zucker rats (336 h, 2 wk, read-out: TG, Percent Change from Pre-Treatment) was -59%.
